Experimental data: patent publication US8889670B2, “Heterocyclic compounds which modulate the CB2 receptor” (Boehringer Ingelheim International GmbH, priority 2009, dated 2014)

Target: T1, human CB2R (Homo sapiens, UniProt P34972)
T1 construct: host or cells: CHO cells
Assay: CB2R mediated modulation of cAMP synthesis (forskolin-stimulated cAMP, CHO cells expressing human CB2R)
Assay type: cell-based
Settings: not given
Procedure: B. CB2R Mediated Modulation of cAMP Synthesis:
Compounds of the invention were evaluated for their CB2 agonist or inverse agonistic activity in accordance with the following experimental method.
CHO cells expressing human CB2R (Euroscreen) were plated at a density of 5000 cells per well in 384 well plates and incubated overnight at 37° C. After removing the media, the cells were treated with test compounds diluted in stimulation buffer containing 1 mM IBMX, 0.25% BSA and 10 uM Forskolin. The assay was incubated for 30 minutes at 37° C. Cells were lysed and the cAMP concentration was measured using DiscoverX-XS cAMP kit, following the manufacturer's protocol. In this setting, agonists will decrease forskolin induced production of cAMP while inverse agonists will further increase forskolin induced production of cAMP. EC50 of agonists were calculated as follows. The maximal amount of cAMP produced by forskolin compared to the level of cAMP inhibited by 1 uM CP55940 is defined as 100%. […] Data was analyzed using a four-parameter logistic model. (Model 205 of XLfit 4.0).

T1 sequence (P34972 whole entry): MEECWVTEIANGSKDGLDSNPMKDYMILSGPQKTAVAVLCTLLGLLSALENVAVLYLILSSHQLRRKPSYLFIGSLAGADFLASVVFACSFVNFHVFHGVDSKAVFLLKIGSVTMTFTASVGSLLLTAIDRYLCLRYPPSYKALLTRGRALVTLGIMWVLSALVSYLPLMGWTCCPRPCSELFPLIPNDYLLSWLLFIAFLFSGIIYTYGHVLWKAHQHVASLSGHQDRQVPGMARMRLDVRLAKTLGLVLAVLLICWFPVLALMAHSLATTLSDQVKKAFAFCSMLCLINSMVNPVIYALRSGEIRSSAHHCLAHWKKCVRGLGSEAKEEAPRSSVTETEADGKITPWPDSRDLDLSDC

SMILES	EC50
CC(C)(C)c1cc(NC(=O)C2COCCN2S(=O)(=O)c2ccc(Cl)cc2)no1 (stereo not drawn) [4-(4-Chloro-benzenesulfonyl)-morpholine-3-carboxylic acid (5-tert-butyl-isoxazol-3-yl)-amide]	34 nM
CC(C)(C)c1cc(NC(=O)[C@@H]2CCCCN2C(=O)C2CCCC2)no1 [(S)-1-Cyclopentanecarbonyl-piperidine-2-carboxylic acid (5-tert-butyl-isoxazol-3-yl)-amide]	14 nM
CC(C)(C)c1cc(NC(=O)[C@@H]2CCCCN2C(=O)C[C@H]2CCCO2)no1 [(S)-1-((R)-2-Tetrahydro-furan-2-yl-acetyl)-piperidine-2-carboxylic acid (5-tert-butyl-isoxazol-3-yl)-amide]	94 nM
O=C(Nc1nc2cc(Cl)ccc2s1)[C@@H]1CCCCN1CC1CCOCC1 [(S)-1-(Tetrahydro-pyran-4-ylmethyl)-piperidine-2-carboxylic acid (5-chloro-benzothiazol-2-yl)-amide]	0.2 nM
O=C(Nc1nc(-c2ccc(F)cc2F)cs1)[C@@H]1CCCCN1C(=O)N1CCS(=O)(=O)CC1 [(S)-1-(1,1-Dioxo-1λ^6-thiomorpholine-4-carbonyl)-piperidine-2-carboxylic acid [4-(2,4-difluoro-phenyl)-thiazol-2-yl]-amide]	22 nM
O=C(Nc1nc(-c2ccc(F)cc2)cs1)[C@@H]1CCCCN1C(=O)N1CCS(=O)(=O)CC1 [(S)-1-(1,1-Dioxo-1λ^6-thiomorpholine-4-carbonyl)-piperidine-2-carboxylic acid [4-(4-fluoro-phenyl)-thiazol-2-yl]-amide]	38 nM
CC(C)(C)c1cc(NC(=O)[C@@H]2CCCCN2C(=O)c2ccc(F)cc2)no1 [(S)-1-(4-Fluoro-benzoyl)-piperidine-2-carboxylic acid (5-tert-butyl-isoxazol-3-yl)-amide]	2.2 nM
CC(C)(C)c1cc(NC(=O)[C@@H]2CCCCN2C(=O)CN2CCC(F)CC2)no1 [(S)-1-[2-(4-Fluoro-piperidin-1-yl)-acetyl]-piperidine-2-carboxylic acid (5-tert-butyl-isoxazol-3-yl)-amide]	75 nM
O=C(Nc1ccc(C(F)(F)F)cn1)[C@@H]1CCCCN1CC1CCOCC1 [(S)-1-(Tetrahydro-pyran-4-ylmethyl)-piperidine-2-carboxylic acid (5-trifluoromethyl-pyridin-2-yl)-amide]	69 nM
CC(C)(C)c1cc(NC(=O)[C@@H]2CCCN(c3ncc(C(F)(F)F)cc3Cl)C2)no1 [(R)-3′-Chloro-5′-trifluoromethyl-3,4,5,6-tetrahydro-2H-[1,2′]bipyridinyl-3-carboxylic acid (5-tert-butyl-isoxazol-3-yl)-amide]	54 nM
CC(C)(C)c1cc(NC(=O)[C@@H]2CCCCCN2C(=O)N2CCS(=O)(=O)CC2)no1 [(S)-1-(1,1-Dioxo-1λ^6-thiomorpholine-4-carbonyl)-azepane-2-carboxylic acid (5-tert-butyl-isoxazol-3-yl)-amide]	15 nM
CO[C@H]1CC[C@@H](C(=O)N2CCCC[C@H]2C(=O)Nc2cc(C(C)(C)C)on2)CC1	43 nM
O=C(Nc1nc(-c2ccc(Cl)cc2)cs1)[C@@H]1CCCCN1C(=O)N1CCS(=O)(=O)CC1 [(S)-1-(1,1-Dioxo-1λ^6-thiomorpholine-4-carbonyl)-piperidine-2-carboxylic acid [4-(4-chloro-phenyl)-thiazol-2-yl]-amide]	9.9 nM
COc1ccc(S(=O)(=O)N2CCCC[C@H]2C(=O)Nc2cc(C(C)(C)C)on2)cc1 [(S)-1-(4-Methoxy-benzenesulfonyl)-piperidine-2-carboxylic acid (5-tert-butyl-isoxazol-3-yl)-amide]	27 nM
CC(C)(C)c1cc(NC(=O)[C@H]2CCCCN2C(=O)C2CCC(F)(F)CC2)no1 [(R)-1-(4,4-Difluoro-cyclohexanecarbonyl)-piperidine-2-carboxylic acid (5-tert-butyl-isoxazol-3-yl)-amide]	64 nM
CC(C)(C)c1cc(NC(=O)[C@@H]2CCCCN2C(=O)C(F)(F)F)no1 [(S)-1-(2,2,2-Trifluoro-acetyl)-piperidine-2-carboxylic acid (5-tert-butyl-isoxazol-3-yl)-amide]	48 nM
O=C(Nc1cc(C2CCCCC2)no1)[C@@H]1CCCCN1C(=O)N1CCS(=O)(=O)CC1 [(S)-1-(1,1-Dioxo-1λ^6-thiomorpholine-4-carbonyl)-piperidine-2-carboxylic acid (3-cyclohexyl-isoxazol-5-yl)-amide]	59 nM
CC(C)(C)c1cc(NC(=O)[C@@H]2CCCCCN2C2CCOCC2)no1 [(S)-1-(Tetrahydro-pyran-4-yl)-azepane-2-carboxylic acid (5-tert-butyl-isoxazol-3-yl)-amide]	0.18 nM
CC(C)(C)c1cc(NC(=O)[C@@H]2CCCCN2C(=O)C2CCC(F)(F)CC2)no1 [(S)-1-(4,4-Difluoro-cyclohexanecarbonyl)-piperidine-2-carboxylic acid (5-tert-butyl-isoxazol-3-yl)-amide]	4.6 nM
CC(C)(C)c1cc(NC(=O)[C@@H]2CCCCN2CC2CCOCC2)sn1 [(S)-1-(Tetrahydro-pyran-4-ylmethyl)-piperidine-2-carboxylic acid (3-tert-butyl-isothiazol-5-yl)-amide]	0.3 nM

Same assay, conditions: agonist EC50, inhibition of forskolin-stimulated cAMP synthesis; CHO cells expressing human CB2R; mean; read-out: CB2 CAMP @ EC50 nM (mean)

EC50	SMILES
180 nM	CCc1sc(NC(=O)[C@@H]2CCCCN2C(=O)OC(C)(C)C)nc1-c1ccccc1 [(S)-2-(5-Ethyl-4-phenyl-thiazol-2-ylcarbamoyl)-piperidine-1-carboxylic acid tert-butyl ester]
485 nM	CC(C)(C)c1nnc(NC(=O)[C@@H]2CCCCN2C2CC2)s1 [(S)-1-Cyclopropyl-piperidine-2-carboxylic acid (5-tert-butyl-1,3,4-thiadiazol-2-yl)-amide]
105 nM	CCC(C)c1cc(NC(=O)[C@@H]2CCCCN2C(=O)N2CCS(=O)(=O)CC2)on1 (stereo partly drawn) [(S)-1-(1,1-Dioxo-1λ^6-thiomorpholine-4-carbonyl)-piperidine-2-carboxylic acid (3-sec-butyl-isoxazol-5-yl)-amide]
1.2 nM	O=C(Nc1nc(-c2ccccc2)ns1)[C@@H]1CCCCN1CC1CCOCC1 [(S)-1-(Tetrahydro-pyran-4-ylmethyl)-piperidine-2-carboxylic acid (3-phenyl-1,2,4-thiadiazol-5-yl)-amide]
9 nM	O=C(Nc1nc(C2CCCCC2)cs1)[C@@H]1CCCCN1CC1CCOCC1 [(S)-1-(Tetrahydro-pyran-4-ylmethyl)-piperidine-2-carboxylic acid (4-cyclohexyl-thiazol-2-yl)-amide]
206 nM	O=C(Nc1nc2cc(Cl)ccc2s1)[C@@H]1CCCCN1C1CCOCC1 [(S)-1-(Tetrahydro-pyran-4-yl)-piperidine-2-carboxylic acid (5-chloro-benzothiazol-2-yl)-amide]
140 nM	CC(C)(C)c1nnc(NC(=O)[C@@H]2CCCCN2C2CCC2)s1 [(S)-1-Cyclobutyl-piperidine-2-carboxylic acid (5-tert-butyl-1,3,4-thiadiazol-2-yl)-amide]
495 nM	CC(C)(C)OC(=O)N1CCCC[C@H]1C(=O)Nc1nnc(C(C)(C)C)s1 [(S)-2-(5-tert-Butyl-1,3,4-thiadiazol-2-ylcarbamoyl)-piperidine-1-carboxylic acid tert-butyl ester]
11 nM	O=C(Nc1nc(-c2ccccc2)ns1)[C@@H]1CCCCN1c1ncc(C(F)(F)F)cc1Cl [(S)-3′-Chloro-5′-trifluoromethyl-3,4,5,6-tetrahydro-2H-1,2′-bipyridinyl-2-carboxylic acid (3-phenyl-1,2,4-thiadiazol-5-yl)-amide]

SMILES	EC50
O=C(Nc1cc(C(F)(F)F)ccn1)[C@@H]1CCCCN1CC1CCOCC1 [(S)-1-(Tetrahydro-pyran-4-ylmethyl)-piperidine-2-carboxylic acid (4-trifluoromethyl-pyridin-2-yl)-amide]	290 nM
CC(C)(C)c1cc(NC(=O)C2CCCN(C(=O)C3CCOCC3)C2)no1 (stereo not drawn) [1-(Tetrahydro-pyran-4-carbonyl)-piperidine-3-carboxylic acid (5-tert-butyl-isoxazol-3-yl)-amide]	205 nM
CC(C)(C)c1cc(NC(=O)C2CCCCN2C(=O)c2ccc(C(F)(F)F)cc2)no1 (stereo not drawn) [1-(4-Trifluoromethyl-benzoyl)-piperidine-2-carboxylic acid (5-tert-butyl-isoxazol-3-yl)-amide]	395 nM
CC(C)(C)c1cc(NC(=O)C2CCCN(C(=O)N3CCS(=O)(=O)CC3)C2)no1 (stereo not drawn) [1-(1,1-Dioxo-1λ6-thiomorpholine-4-carbonyl)-piperidine-3-carboxylic acid (5-tert-butyl-isoxazol-3-yl)-amide]	215 nM
COCC(C)(C)c1cc(NC(=O)[C@@H]2CCCCN2C(=O)N2CCS(=O)(=O)CC2)no1 [(S)-1-(1,1-Dioxo-1λ^6-thiomorpholine-4-carbonyl)-piperidine-2-carboxylic acid [5-(2-methoxy-1,1-dimethyl-ethyl)-isoxazol-3-yl]-amide]	162 nM
CC(C)(C)OC(=O)N1CCCC[C@H]1C(=O)Nc1cc(C(C)(C)C)on1 [(S)-2-(5-tert-Butyl-isoxazol-3-ylcarbamoyl)-piperidine-1-carboxylic acid tert-butyl ester]	279 nM
CC(C)(C)c1cc(NC(=O)[C@@H]2CCCCN2C(=O)CN2CCOCC2)no1 [(S)-1-(2-Morpholin-4-yl-acetyl)-piperidine-2-carboxylic acid (5-tert-butyl-isoxazol-3-yl)-amide]	188 nM
